Reference: PubChem BioAssay (NCI)
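Five compound concentrations were applied to cells in 96-well plates for 48 hours; endpoints were derived by simple linear interpolation of the resulting dose-response curve. GI50: concentration for 50% inhibition of growth. Definition used: TGI = concentration required for complete inhibition of growth.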

Assays:
Test in all cases: growth of human tumour cells (NCI), 48 h
OVCAR-3 ovarian = tested on: OVCAR-3 ovarian
SK-MEL-2 melanoma = tested on: SK-MEL-2 melanoma
OVCAR-5 ovarian = tested on: OVCAR-5 ovarian
SN12C renal = tested on: SN12C renal
U251 CNS = tested on: U251 CNS
HCT-116 colon = tested on: HCT-116 colon
IGROV1 ovarian = tested on: IGROV1 ovarian
HL-60(TB) leukemia = tested on: HL-60(TB) leukemia
A498 renal = tested on: A498 renal
UACC-62 melanoma = tested on: UACC-62 melanoma

| Structure (SMILES) | TGI (OVCAR-3 ovarian) | GI50 (SK-MEL-2 melanoma) | TGI (SK-MEL-2 melanoma) | TGI (OVCAR-5 ovarian) | GI50 (SN12C renal) | TGI (SN12C renal) | TGI (U251 CNS) | TGI (HCT-116 colon) | GI50 (IGROV1 ovarian) | TGI (IGROV1 ovarian) | GI50 (HL-60(TB) leukemia) | TGI (HL-60(TB) leukemia) | GI50 (A498 renal) | TGI (A498 renal) | GI50 (UACC-62 melanoma) | TGI (UACC-62 melanoma) | GI50 (OVCAR-3 ovarian) | GI50 (OVCAR-5 ovarian) | GI50 (U251 CNS) | GI50 (HCT-116 colon) |
| --- | --- | --- | --- | --- | --- | --- | --- | --- | --- | --- | --- | --- | --- | --- | --- | --- | --- | --- | --- | --- |
| COc1cc(-c2nn3c(=O)n(-c4ccc(Cl)cc4)c(=O)nc3s2)cc(OC)c1OC | > 100 µM | > 50 µM | > 100 µM | > 100 µM | > 50 µM | > 100 µM | > 69 µM | > 100 µM | > 50 µM | > 100 µM | > 100 µM | > 100 µM | > 50 µM | > 100 µM | > 100 µM | > 100 µM | – | – | – | – |
| CN1CCN(CCCOc2ccc3ncnc(Nc4ccc(Oc5cccc(F)c5)c(Cl)c4)c3c2)CC1 | 3.74 µM | 1.95 µM | 4.04 µM | 3.29 µM | 1.39 µM | 2.74 µM | 3.29 µM | 2.86 µM | 0.711 µM | 2.23 µM | 2.05 µM | 4.17 µM | 1.25 µM | 2.74 µM | 1.75 µM | 3.27 µM | 1.61 µM | 1.67 µM | 1.56 µM | 1.51 µM |
| COc1cc(/C=C2\C(=O)Nc3ccc(Br)cc32)cc(OC)c1OC | > 56.9 µM | 12.9 µM | 55.2 µM | > 100 µM | > 93.8 µM | > 100 µM | 30 µM | > 100 µM | 2.29 µM | 17 µM | 4.36 µM | > 100 µM | 13.7 µM | > 55.8 µM | 5.96 µM | > 100 µM | 5.59 µM | 30.6 µM | 7.19 µM | 4.86 µM |
| c1cc2ccc1C1NCCCN1CCN1CCCNC1c1ccc(cc1)C1NCCCN1CCN1CCCNC21 (stereo unspecified) | > 100 µM | – | > 100 µM | > 100 µM | – | > 100 µM | > 100 µM | > 100 µM | – | > 100 µM | – | 67.8 µM | – | > 100 µM | – | > 100 µM | – | – | – | – |
| C=CCN(N=O)C(=O)ON1C(=O)CCC1=O | > 100 µM | – | > 100 µM | > 100 µM | – | > 100 µM | > 100 µM | > 100 µM | – | > 100 µM | – | > 100 µM | – | > 100 µM | – | > 100 µM | – | – | – | – |
| Cc1cc2c(-c3nc4ccccn4c3NC34CC5CC(CC(C5)C3)C4)c(O)c(O)cc2c(O)c1-c1c(C)cc2c(-c3nc4ccccn4c3NC34CC5CC(CC(C5)C3)C4)c(O)c(O)cc2c1O | 8.3 µM | 0.802 µM | 6.25 µM | > 25 µM | 0.716 µM | > 25 µM | 3.3 µM | 6.22 µM | 0.883 µM | > 25 µM | 0.789 µM | 11.5 µM | 0.817 µM | > 25 µM | 0.521 µM | 1.91 µM | 0.617 µM | 0.922 µM | 0.106 µM | 0.0889 µM |
| Fc1ccc(-c2cc(-c3cn[nH]c3-c3ccccn3)ccn2)cc1 | > 25 µM | > 25 µM | > 25 µM | > 25 µM | > 25 µM | > 25 µM | > 25 µM | > 25 µM | > 25 µM | > 25 µM | > 25 µM | > 25 µM | 24.8 µM | > 25 µM | > 25 µM | > 25 µM | > 25 µM | > 25 µM | > 25 µM | > 17.3 µM |
| NC(=O)c1c(NC(=O)c2cccc(C(F)(F)F)c2)sc2c1CCC(=O)C2 | 1.34 µM | 2.06 µM | 6.25 µM | 9.42 µM | 0.392 µM | > 100 µM | 16.6 µM | > 32.2 µM | 0.468 µM | 3.47 µM | 0.442 µM | 6.2 µM | 3.33 µM | > 100 µM | 0.368 µM | 1.66 µM | 0.364 µM | 0.83 µM | 0.307 µM | 0.249 µM |
| O=c1c2ccccc2c(=O)c2c1sc1c(=O)c3ccc(O)cc3c(=O)c12 | 0.924 µM | 1.47 µM | 3.88 µM | 3.65 µM | 0.187 µM | 0.36 µM | 2.39 µM | 3.9 µM | 2.1 µM | 6.84 µM | 2.38 µM | 9.77 µM | 0.574 µM | 1.72 µM | 0.174 µM | 0.331 µM | 0.263 µM | 1.74 µM | 1.01 µM | 0.651 µM |
| COc1ccc2nc3cc(Cl)ccc3c(Nc3ccc(O)c(CN4CCCC4)c3)c2c1 | 15 µM | 1.99 µM | 3.77 µM | 7.62 µM | 1.84 µM | 4.56 µM | 4.44 µM | 2.92 µM | 2.6 µM | 6.67 µM | 2.18 µM | 6.08 µM | 2.89 µM | 12.2 µM | 1.71 µM | 3.51 µM | 3.54 µM | 2.89 µM | 2.15 µM | 1.41 µM |
| O=C(Nc1nc2ccc(F)cc2s1)c1cccnc1Nc1ccc(Cl)cc1Cl | 7.1 µM | 3.3 µM | > 26.2 µM | 28.9 µM | 2.65 µM | 13.7 µM | 12 µM | 8.01 µM | 3.66 µM | > 23.6 µM | 2 µM | 5.7 µM | 2.13 µM | 6.84 µM | 2.57 µM | 17.2 µM | 2.18 µM | 7.71 µM | 2.92 µM | 2.07 µM |
| C=C[C@@]1(C)CC(=O)[C@]2(O)[C@@]3(C)[C@@H](O)CCC(C)(C)[C@@H]3[C@H](O)[C@@H](OC(C)=O)[C@@]2(C)O1 | > 100 µM | – | > 100 µM | > 100 µM | – | > 100 µM | > 100 µM | > 100 µM | – | > 100 µM | – | > 100 µM | – | > 100 µM | – | > 100 µM | – | – | – | – |
| CCOC(=O)C(=Cc1c(-c2ccccc2)[nH]c2ccccc12)C(=O)OCC | 22.6 µM | 4.6 µM | 17.3 µM | 41.8 µM | 5.04 µM | 55 µM | 35.6 µM | 16 µM | 5.56 µM | 23.7 µM | 4.19 µM | 35.5 µM | 15.8 µM | 55.6 µM | 4.64 µM | 21.7 µM | 4.21 µM | 13.4 µM | 4.91 µM | 4.25 µM |
